Results published in paper PMC3796444 (PLoS ONE, 2013).
Numbering of substitutions follows the chain as printed.

Key:
Format in all cases: binding
[1] = target: T1, alanine:glyoxylate aminotransferase (AGT), AGT WT (major allele) (Homo sapiens, UniProt P21549); assay: filtration ([…] kDa cut-off) and UV absorption of released PMP; conditions: holo-enzyme 36 µM monomer with L-Ala, 1 h, 25°C
T1 construct: gene AGXT; His-tagged full-length AGT from pCOLDII, expressed in E. coli BL21, IMAC and SEC; about 90 kDa dimer
T1 sequence (P21549 1-392): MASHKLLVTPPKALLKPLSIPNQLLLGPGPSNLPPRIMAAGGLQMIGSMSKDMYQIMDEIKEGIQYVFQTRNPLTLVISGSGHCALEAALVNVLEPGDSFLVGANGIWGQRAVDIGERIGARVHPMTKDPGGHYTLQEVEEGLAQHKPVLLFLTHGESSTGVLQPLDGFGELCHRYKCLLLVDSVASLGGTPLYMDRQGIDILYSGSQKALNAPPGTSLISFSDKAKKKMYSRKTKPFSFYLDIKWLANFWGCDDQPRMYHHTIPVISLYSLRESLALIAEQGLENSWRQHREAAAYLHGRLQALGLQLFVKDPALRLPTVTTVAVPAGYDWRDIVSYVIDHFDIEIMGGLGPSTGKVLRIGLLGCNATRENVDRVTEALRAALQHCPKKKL

[2] = target: T1, alanine:glyoxylate aminotransferase (AGT), AGT WT (major allele); assay: fluorescence equilibrium titration of apo-AGT; conditions: read-out: K d(PLP) (nM) ^b
From the text: (§1) fluorescence equilibrium titration of apo-AGT on alanine:glyoxylate aminotransferase (AGT), AGT WT (major allele)

[3] = target: T2, alanine:glyoxylate aminotransferase (AGT), AGT WT (major allele) (Homo sapiens, UniProt P21549, A295T/I340M/P11L); assay: fluorescence equilibrium titration of apo-AGT; conditions: read-out: K d(PLP) (nM) ^b
T2 construct: gene AGXT; His-tagged full-length AGT from pCOLDII, expressed in E. coli BL21, IMAC and SEC; about 90 kDa dimer
T2 sequence (P21549 1-392 P11L/A295T/I340M): T1 sequence (P21549 1-392) with P11L, A295T, I340M
From the text: as §1

[4] = target: T3, alanine:glyoxylate aminotransferase (AGT), AGT WT (major allele) (Homo sapiens, UniProt P21549, A368T/I340M/P11L); assay: fluorescence equilibrium titration of apo-AGT; conditions: read-out: K d(PLP) (nM) ^b
T3 construct: gene AGXT; His-tagged full-length AGT from pCOLDII, expressed in E. coli BL21, IMAC and SEC; about 90 kDa dimer
T3 sequence (P21549 1-392 P11L/I340M/A368T): T1 sequence (P21549 1-392) with P11L, I340M, A368T
From the text: as §1

[5] = target: T4, alanine:glyoxylate aminotransferase (AGT), AGT WT (major allele) (Homo sapiens, UniProt P21549, I340M); assay: fluorescence equilibrium titration of apo-AGT; conditions: read-out: K d(PLP) (nM) ^b
T4 construct: gene AGXT; His-tagged full-length AGT from pCOLDII, expressed in E. coli BL21, IMAC and SEC; about 90 kDa dimer
T4 sequence (P21549 1-392 I340M): T1 sequence (P21549 1-392) with I340M
From the text: as §1

[6] = target: T5, alanine:glyoxylate aminotransferase (AGT), AGT WT (major allele) (Homo sapiens, UniProt P21549, I340M/P11L); assay: fluorescence equilibrium titration of apo-AGT; conditions: read-out: K d(PLP) (nM) ^b
T5 construct: gene AGXT; His-tagged full-length AGT from pCOLDII, expressed in E. coli BL21, IMAC and SEC; about 90 kDa dimer
T5 sequence (P21549 1-392 P11L/I340M): T1 sequence (P21549 1-392) with P11L, I340M
From the text: as §1

[7] = target: T6, alanine:glyoxylate aminotransferase (AGT), AGT WT (major allele) (Homo sapiens, UniProt P21549, I340M/P11L/R197Q); assay: fluorescence equilibrium titration of apo-AGT; conditions: read-out: K d(PLP) (nM) ^b
T6 construct: gene AGXT; His-tagged full-length AGT from pCOLDII, expressed in E. coli BL21, IMAC and SEC; about 90 kDa dimer
T6 sequence (P21549 1-392 P11L/R197Q/I340M): T1 sequence (P21549 1-392) with P11L, R197Q, I340M
From the text: as §1

% PMP released [1]	Kd [2]	Kd [3]	Kd [4]	Kd [5]	Kd [6]	Kd [7]	Structure (SMILES)
~ 3%	–	–	–	–	–	–	Cc1ncc(COP(=O)(O)O)c(CN)c1O [PMP]
–	100 ± 30 nM	71 ± 16 nM	134 ± 26 nM	172 ± 42 nM	157 ± 15 nM	156 ± 34 nM	Cc1ncc(COP(=O)(O)O)c(C=O)c1O [PLP]
